# Measured values from PMC6452907 (Polyhedron, 2019).
# Read-outs that look alike come from different tables or passages of the source.
# Columns and labels:
# THP1 cells = experiment: Cytotoxicity against THP1 cell cultures; type: cell-based, human; conditions: THP1 cells; for IC50: read-out: THP1 cells (Cytotoxicity) IC50; for IC90: read-out: THP1 cells (Cytotoxicity) IC90
# [1] = tested on: L. donovani intracellular amastigotes in THP1 cells; type: cell-based, Leishmania donovani
# [2] = tested on: L. donovani promastigotes; experiment: In vitro antileishmanial assay against L. donovani promastigotes; type: cell-based; conditions: Leishmania donovani, 72 h; for IC50: read-out: L. donavani Promastigotes IC50; for IC90: read-out: L. donavani Promastigotes IC90
# [3] = Cytotoxicity against THP1 cell cultures; type: cell-based, human; conditions: human, THP1 cell cultures
# [4] = tested on: L. donovani axenic amastigotes; experiment: In vitro antileishmanial assay against L. donovani axenic amastigotes; type: cell-based; conditions: Leishmania donovani, 72 h; for IC50: read-out: L. donavani Amastigotes IC50; for IC90: read-out: L. donavani Amastigotes IC90
# [5] = tested on: L. donovani amastigotes in mouse macrophages; conditions: cited from earlier work
# [6] = read-out: L. donavani Amastigotes + THP1 IC50, intracellular amastigotes in differentiated THP1 macrophages
# [7] = read-out: L. donavani Amastigotes + THP1 IC90, intracellular amastigotes in differentiated THP1 macrophages
Structure (SMILES),IC50 (THP1 cells),IC90 (THP1 cells),"IC50 [1, 6]","IC90 [1, 7]",further results
CN1CCCN2CCN(CCCN(Cc3ccccc3)CC2)CC1 [Bn1Me1Bcyclam (L2)],> 20 µM,> 20 µM,> 20 µM,> 20 µM,–
c1ccc(CN2CCN3CCCN(CC2)CCN(Cc2ccccc2)CC3)cc1 [Bn2PBCyclen (L4)],> 25 µM,> 25 µM,18.2 µM,> 25 µM,–
N=C(N)c1ccc(OCCCCCOc2ccc(C(=N)N)cc2)cc1 [Pentamidine],–,–,–,–,IC50 [2]: 2930 nM; IC90 [2]: 6.52 µM; IC50 [3]: > 20 µM; IC90 [3]: > 25 µM; IC50 [4]: 20.4 µM; IC90 [4]: > 25000 nM
"c1ccc(CN2CCCNCCN(Cc3ccccc3)CCCNCC2)cc1 [Bn2Cyclam (L10), 1,8-dibenzylcyclam]",> 25 µM,> 25 µM,12.9 µM,13.2 µM,–
c1ccc(CNCCCNCCCCCCCNCCCNCc2ccccc2)cc1 [MDL27695],–,–,–,–,elimination of L. donovani amastigotes from mouse macrophages ([5]; at a 1 μM concentration): 77–100%
Cl.Cl.Cl.N=C(N)c1cccc(/C=N/N=C(\N)N/N=C/c2cccc(C(=N)N)c2)c1 [CGP40215A],–,–,–,–,concentration inhibiting growth of L. donovani amastigotes in mouse macrophages ([5]; mouse macrophages): up to 90 μM
c1ccc(CN2CCN3CCN(CC2)CCN(Cc2ccccc2)CC3)cc1 [Bn2Bcyclen (L3)],> 25 µM,> 25 µM,> 25 µM,> 25 µM,–
C[C@@H]1[C@H](O)[C@@H](C)/C=C/C=C/C=C/C=C/C=C/C=C/C=C/[C@H](O[C@@H]2O[C@H](C)[C@@H](O)[C@H](N)[C@@H]2O)C[C@@H]2O[C@](O)(C[C@@H](O)C[C@@H](O)[C@H](O)CC[C@@H](O)C[C@@H](O)CC(=O)O[C@H]1C)C[C@H](O)[C@H]2C(=O)O [Amphotericine B],–,–,–,–,"IC50 [2]: 134 nM; IC90 [2]: 0.262 µM; IC50 [3]: > 10 µM; IC90 [3]: > 10 µM; IC50 [4]: 0.79 µM; IC90 [4]: 959 nM; IC50 ([1]; Leishmania donovani, THP-1, read-out: L. donavani Amastigotes + THP1 IC50): 0.48 µM; IC90 ([1]; Leishmania donovani, THP-1, read-out: L. donavani Amastigotes + THP1 IC90): 1.94 µM"
